pIC50: −log10 of the molar value. Read-outs that look alike come from different tables or passages of the source.
Assays:
AmpC = molecular target: T1, AmpC (Pseudomonas aeruginosa, UniProt P24735); assay: biochemical
T1 construct: AmpC, TEM-1, KPC-2 or OXA-2 domain excluding signal peptide was amplified with PCR; made in house; host or cells: Escherichia coli BL21 (DE3), pET-28b(+)

TEM-1 = molecular target: T2, TEM-1 (Escherichia coli, UniProt P62593); assay: β-Lactamase inhibitory activity (nitrocefin hydrolysis), TEM-1; type: biochemical; details: TEM-1 0.1 nM, 100 μM nitrocefin, pre-incubation 30° C. 10 minutes
T2 construct: AmpC, TEM-1, KPC-2 or OXA-2 domain excluding signal peptide was amplified with PCR; made in house; host or cells: Escherichia coli BL21 (DE3), pET-28b(+)
T2 sequence (P62593 24-286 limits assumed): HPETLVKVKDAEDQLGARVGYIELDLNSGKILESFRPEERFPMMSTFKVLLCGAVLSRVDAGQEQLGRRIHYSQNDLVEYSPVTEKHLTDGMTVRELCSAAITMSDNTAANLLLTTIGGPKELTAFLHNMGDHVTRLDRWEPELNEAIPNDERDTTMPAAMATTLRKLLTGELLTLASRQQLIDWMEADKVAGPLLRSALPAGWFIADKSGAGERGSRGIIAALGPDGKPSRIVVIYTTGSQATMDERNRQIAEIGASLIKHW
Experimental: Using Pseudomonas aeruginosa ATCCBAA-47 genome, plasmid pBR322, Klebsiella pneumoniae ATCCBAA-1705, and P. aeruginosa MSC17696 as a template, each DNA for encoding β-lactamase, AmpC, TEM-1, KPC-2 or OXA-2 domain excluding signal peptide was amplified with PCR. Each of the PCR product was incorporated into pET-28b(+)vector (Merck), introduced into Escherichia coli BL21 (DE3) (Merck), and, under induction of 1 mM isopropyl-β-D-(−)-thiogalactopyranoside (Nacalai Tesque), cultured overnight at 20° C. to express AmpC, TEM-1, KPC-2, and OXA-2. After the bacterial cell was collected, AmpC was purified from the cell extract obtained by ultrasonic treatment, using CM Sepharose Fast Flow (GE Healthcare) and HiTrap Heparin HP (GE Healthcare) at 4° C. TEM-1 was purified with HiTrap SPHP (GE Healthcare), HiTrap Q (GE Healthcare) and Mono Q (GE Healthcare), and KPC-2 was purified with HiTrap SPHP. OXA-2 was purified with HiTrap SPHP and HiTrap Heparin HP.
For the measurement of β-lactamase inhibitory activity, 100 μM (final concentration) nitrocefin (Oxoid) was used as a substrate, and 2.5% DMSO, 10 μg/mL bovine serum derived albumin (Sigma-Aldrich) and 50 mM phosphate buffer at pH 7.0 were used as a reaction solution. […] Nitrocefin was added to each well to be mixed therein, followed by incubation at 30° C. for 20 minutes, and Multiscan Ascent (Thermo Fisher Scientific) was used to measure 492 nm wavelength, thereby measuring nitrocefin hydrolytic activity of β-Lactamase, to determine enzyme inhibitory activity. […] As the inhibitory activity strength, less than 0.1 μM, less than 1 μM, less than 3 μM, less than 10 μM, and 10 μM or more were shown with A, B, C, D, and E respectively.

KPC-2 = molecular target: T3, KPC-2 (Klebsiella pneumoniae, UniProt Q9F663); assay: β-Lactamase inhibitory activity (nitrocefin hydrolysis), KPC-2; type: biochemical; details: KPC-2 0.5 nM, 100 μM nitrocefin, pre-incubation 30° C. 10 minutes
T3 construct: AmpC, TEM-1, KPC-2 or OXA-2 domain excluding signal peptide was amplified with PCR; made in house; host or cells: Escherichia coli BL21 (DE3), pET-28b(+)
T3 sequence (Q9F663 25-293, looked up): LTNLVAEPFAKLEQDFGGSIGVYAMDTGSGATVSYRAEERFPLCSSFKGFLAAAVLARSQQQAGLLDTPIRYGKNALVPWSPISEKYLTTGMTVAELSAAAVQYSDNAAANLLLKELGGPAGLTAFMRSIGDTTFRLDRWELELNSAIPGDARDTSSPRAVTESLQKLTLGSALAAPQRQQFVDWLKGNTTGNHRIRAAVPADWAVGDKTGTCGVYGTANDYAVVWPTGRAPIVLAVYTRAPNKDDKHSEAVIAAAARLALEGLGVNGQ

OXA-2 = molecular target: T4, OXA-2 (Escherichia coli, UniProt P0A1V9); assay: biochemical; design: species or system P. aeruginosa
T4 construct: AmpC, TEM-1, KPC-2 or OXA-2 domain excluding signal peptide was amplified with PCR; made in house; host or cells: Escherichia coli BL21 (DE3), pET-28b(+)
T4 sequence (P0A1V9 22-275): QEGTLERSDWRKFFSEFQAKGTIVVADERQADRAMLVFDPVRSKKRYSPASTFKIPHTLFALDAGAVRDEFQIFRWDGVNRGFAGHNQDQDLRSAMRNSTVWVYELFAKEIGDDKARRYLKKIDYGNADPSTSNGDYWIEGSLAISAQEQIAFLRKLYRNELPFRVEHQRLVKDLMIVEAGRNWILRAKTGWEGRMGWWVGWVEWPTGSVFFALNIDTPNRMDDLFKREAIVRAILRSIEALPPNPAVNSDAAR

[1] = OXA-2 2 nM, 100 μM nitrocefin, pre-incubation 30° C. 10 minutes, read-out: β-Lactamase inhibitory activity OXA-2 (IC50)

T1 sequence (P24735 27-397): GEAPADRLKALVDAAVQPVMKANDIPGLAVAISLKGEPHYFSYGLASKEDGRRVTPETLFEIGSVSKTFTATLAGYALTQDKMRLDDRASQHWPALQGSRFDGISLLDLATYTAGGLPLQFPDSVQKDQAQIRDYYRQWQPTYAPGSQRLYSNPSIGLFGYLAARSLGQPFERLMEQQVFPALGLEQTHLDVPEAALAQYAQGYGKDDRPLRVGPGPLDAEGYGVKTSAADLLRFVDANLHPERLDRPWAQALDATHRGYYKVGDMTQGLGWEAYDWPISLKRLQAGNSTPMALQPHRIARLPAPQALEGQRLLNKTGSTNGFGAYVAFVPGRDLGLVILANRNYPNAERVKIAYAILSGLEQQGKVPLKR

| Structure (SMILES) | pIC50 (AmpC) | pIC50 (TEM-1) | pIC50 (KPC-2) | pIC50 (OXA-2) | pIC50 (OXA-2; [1]) |
| --- | --- | --- | --- | --- | --- |
| CC(C)(C)C(=O)NNC(=O)[C@@H]1CC[C@@H]2CN1C(=O)N2OS(=O)(=O)O [Example 24, Sodium (2S,5R)—N′-(2,2-dimethylpropanoyl)-7-oxo-6-(sulfooxy)-1,6-diazabicyclo[3.2.1]octane-2-carbohydrazide] | 6.00 to 7.00 | 6.00 to 7.00 | 6.00 to 7.00 | – | – |
| CS(=O)(=O)NNC(=O)[C@@H]1CC[C@@H]2CN1C(=O)N2OS(=O)(=O)O [Example 54, Sodium (2S,5R)—N′-(methylsulfonyl)-7-oxo-6-(sulfooxy)-1,6-diazabicyclo[3.2.1]octane-2-carbohydrazide] | > 7.00 | > 7.00 | 6.00 to 7.00 | 6.00 to 7.00 | – |
| Nc1ccc(CC(=O)NNC(=O)[C@@H]2CC[C@@H]3CN2C(=O)N3OS(=O)(=O)O)cc1 [Example 28, (2S,5R)—N′-[(4-Aminophenyl)acetyl]-7-oxo-6-(sulfooxy)-1,6-diazabicyclo[3.2.1]octane-2-carbohydrazide] | > 7.00 | > 7.00 | 6.00 to 7.00 | – | 5.00 to 5.52 |
| O=C(NO[C@H]1CCNC1)[C@@H]1CC[C@@H]2CN1C(=O)N2OS(=O)(=O)O [Example 81, (2S,5R)-7-Oxo-N-[(3S)-pyrrolidin-3-yloxy]-6-(sulfooxy)-1,6-diazabicyclo[3.2.1]octane-2-carboxamide] | > 7.00 | > 7.00 | 6.00 to 7.00 | – | 5.52 to 6.00 |
| COC(=O)NNC(=O)[C@@H]1CC[C@@H]2CN1C(=O)N2OS(=O)(=O)O [Example 51, Sodium methyl 2-{[(2S,5R)-7-oxo-6-(sulfooxy)-1,6-diazabicyclo[3.2.1]oct-2-yl]carbonyl}hydrazinecarboxylate] | 6.00 to 7.00 | > 7.00 | 6.00 to 7.00 | 5.52 to 6.00 | – |
| CN(NC(=O)[C@@H]1CC[C@@H]2CN1C(=O)N2OS(=O)(=O)O)C(=O)OC(C)(C)C (racemic) [Example 18, Sodium tert-butyl 1-methyl-2-{[(2SR,5RS)-7-oxo-6-(sulfooxy)-1,6-diazabicyclo[3.2.1]oct-2-yl]carbonyl}hydrazinecarboxylate] | 6.00 to 7.00 | > 7.00 | 6.00 to 7.00 | 5.52 to 6.00 | – |
| CONC(=O)[C@@H]1CC[C@@H]2CN1C(=O)N2OS(=O)(=O)O [Example 56, Sodium (2S,5R)—N-methoxy-7-oxo-6-(sulfooxy)-1,6-diazabicyclo[3.2.1]octane-2-carboxamide] | 6.00 to 7.00 | > 7.00 | 6.00 to 7.00 | 5.52 to 6.00 | – |
| O=C(NO[C@@H]1CCNC1)[C@@H]1CC[C@@H]2CN1C(=O)N2OS(=O)(=O)O [Example 80, (2S,5R)-7-Oxo-N-[(3R)-pyrrolidin-3-yloxy]-6-(sulfooxy)-1,6-diazabicyclo[3.2.1]octane-2-carboxamide] | 6.00 to 7.00 | > 7.00 | 5.52 to 6.00 | – | 6.00 to 7.00 |
| NCCCONC(=O)[C@@H]1CC[C@@H]2CN1C(=O)N2OS(=O)(=O)O [Example 69, (2S,5R)—N-(3-Aminopropoxy)-7-oxo-6-(sulfooxy)-1,6-diazabicyclo[3.2.1]octane-2-carboxamide] | 6.00 to 7.00 | > 7.00 | 5.52 to 6.00 | – | 6.00 to 7.00 |
| O=C(NNC(=O)[C@@H]1CC[C@@H]2CN1C(=O)N2OS(=O)(=O)O)C1CCNCC1 [Example 35, (2S,5R)-7-Oxo-N′-(piperidine-4-ylcarbonyl)-6-(sulfooxy)-1,6-diazabicyclo[3.2.1]octane-2-carbohydrazide] | 6.00 to 7.00 | > 7.00 | 5.00 to 5.52 | – | 5.52 to 6.00 |
| O=C(NN1CCCC1=O)[C@@H]1CC[C@@H]2CN1C(=O)N2OS(=O)(=O)O (racemic) [Example 33, Sodium (2SR,5RS)-7-oxo-N-(2-oxopyrrolidin-1-yl)-6-(sulfooxy)-1,6-diazabicyclo[3.2.1]octane-2-carboxamide] | 6.00 to 7.00 | > 7.00 | 6.00 to 7.00 | 5.00 to 5.52 | – |
| O=C(NNC(=O)[C@@H]1CC[C@@H]2CN1C(=O)N2OS(=O)(=O)O)c1cccnc1 [Example 45, Sodium (2S,5R)-7-oxo-N′-(pyridine-3-ylcarbonyl)-6-(sulfooxy)-1,6-diazabicyclo[3.2.1]octane-2-carbohydrazide] | > 7.00 | > 7.00 | 6.00 to 7.00 | 5.52 to 6.00 | – |
| CC(=O)NNC(=O)[C@@H]1CC[C@@H]2CN1C(=O)N2OS(=O)(=O)O [Example 21, Sodium (2S,5R)—N′-acetyl-7-oxo-6-(sulfooxy)-1,6-diazabicyclo[3.2.1]octane-2-carbohydrazide] | 6.00 to 7.00 | > 7.00 | 6.00 to 7.00 | 5.52 to 6.00 | – |
